From publication PMC8294059, “Identification and Immune Assessment of T Cell Epitopes in Five Plasmodium falciparum Blood Stage Antigens to Facilitate Vaccine Candidate Selection and Optimization” (Frontiers in Immunology, 2021)
Where a SMILES comes first, the peptide text is derived from it.

Columns and labels:
Assay in all cases: biochemical
Format in all cases: binding
HLA-DRB1*0101 = molecular target: T1, HLA-DRB1*0101 (Homo sapiens, UniProt P01903+P01911, A100R/D57E/F55L/F60I/F76Y/I96L/L162R/M171V/P40L/Q125E/R42F/V115G/Y59C); details: binding inhibition assay; NB = non-binder (no dose-dependent inhibition); read-out: DRB1*0101 IC50
T1 construct: purchased
Protocol: (§1) The binding assay conducted by EpiVax yields an indirect measure of peptide-MHC affinity as it utilizes a competition assay format per the methodology described in Steere et al. ([35]). […] Post incubation, the mixtures are moved to a 96-well plate coated with anti-HLA-DR antibody to capture HLA-peptide complexes. Time-resolved fluorescence measurement of the bound labeled reference peptide complex present in each mixture is detected with a europium-linked probe via fluorescent spectrophotometry using a SpectraMax M5 system. HLA binding affinity of each test peptide is expressed as the percent inhibition of reference peptide binding. Percent inhibition values (across the test peptide titration range) are used to calculate the half maximal inhibitory concentration (IC50) of each test peptide. For these studies, test peptides were assessed using a range of final concentrations from 100,000 nM to 100 nM. The panel of commercially-available HLA-DRB1 allele monomers used includes: *0101, *0301, *0401, *0701, *0801, *1101, *1301 and *1501. EpiVax established HLA-DRB1 binding affinity cutoffs were used to rank the IC50 values.
(§2) In vitro HLA binding assays (step 2 of workflow shown in Figure 1 ) were carried out with the synthesized peptides to verify the EpiMatrix outputs and provide a measure of accuracy for comparing in silico-predicted HLA-DRB1 allele binding to laboratory assessments of HLA-DRB1 allele binding. These assessments were conducted using a competition assay format whereby IC50 values were calculated based on the ability of the test peptide to compete with a labeled, high binding affinity reference peptide for HLA-DRB1 molecule binding. Sequences for the high affinity reference peptides and the negative control peptide, known not to bind any of the HLA-DRB1 molecules, are provided in Table S18 .

HLA-DRB1*0401 = molecular target: T2, HLA-DRB1*0401 (Homo sapiens, UniProt P01903+P01911, A100K/A169T/F76Y/I96L/K127E/L162R/M171V/N62H/P40V/Q125Y/R42H/S133A/S149N/S66Y/V115G/V209L/W38E); details: binding inhibition assay; NB = non-binder (no dose-dependent inhibition); read-out: DRB1*0401 IC50
T2 construct: purchased
Protocol: as §1, §2

HLA-DRB1*1501 = molecular target: T3, HLA-DRB1*1501 (Homo sapiens, UniProt P01903+P01911); details: binding inhibition assay; NB = non-binder (no dose-dependent inhibition); read-out: DRB1*1501 IC50
T3 construct: purchased
Protocol: as §1, §2

HLA-DRB1*1301 = HLA-DRB1*1301 (Homo sapiens, UniProt P01903+P01911, A100E/A169T/K41T/L162R/M171V/P40S/Q125H/Q178H/Q39Y/Q99D/R42S/S66N/T262R/W38E/Y61H); details: binding inhibition assay; NB = non-binder (no dose-dependent inhibition); read-out: DRB1*1301 IC50
Protocol: as §1, §2

HLA-DRB1*0801 = HLA-DRB1*0801 (Homo sapiens, UniProt P01903+P01911, A100R/A103L/A169T/D86S/F76Y/H45Y/I96F/K41T/L162R/M171V/P40S/Q125H/Q178H/Q39Y/Q99D/R218S/R42G/S66Y/V115G/W38E); details: binding inhibition assay; NB = non-binder (no dose-dependent inhibition); read-out: DRB1*0801 IC50
Protocol: as §1, §2

HLA-DRB1*1101 = HLA-DRB1*1101 (Homo sapiens, UniProt P01903+P01911, A100R/A169T/A87E/I96F/K41T/L162R/M171V/P40S/Q125H/Q178H/Q39Y/Q99D/R42S/S66Y/T262R/V115G/W38E); details: binding inhibition assay; NB = non-binder (no dose-dependent inhibition); read-out: DRB1*1101 IC50
HLA-DRB1*1101, sequence (P01903 26-254 limits assumed, other chains not shown): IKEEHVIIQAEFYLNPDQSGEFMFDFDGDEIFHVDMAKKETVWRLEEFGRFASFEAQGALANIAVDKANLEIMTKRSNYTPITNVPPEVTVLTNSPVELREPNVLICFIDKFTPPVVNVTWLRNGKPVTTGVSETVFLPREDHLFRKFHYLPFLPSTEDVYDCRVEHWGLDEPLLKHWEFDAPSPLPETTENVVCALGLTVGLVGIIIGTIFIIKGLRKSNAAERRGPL
Protocol: as §1, §2

HLA-DRB1*0701 = HLA-DRB1*0701 (Homo sapiens, UniProt P01903+P01911, A100R/A102G/A103Q/D57E/D86V/E43K/F76Y/K127E/L162R/M171V/P40G/Q125H/Q99D/R33Q/R42Y/R54Q/S133A/S66F/T210M/V115G/Y107V/Y59L/Y89S); details: binding inhibition assay; NB = non-binder (no dose-dependent inhibition); read-out: DRB1*0701 IC50
Protocol: as §1, §2

HLA-A*0101 = HLA-A*0101 (Homo sapiens, UniProt P04439, A114D/A174V/A182V/D101N/D185E/E176A/E190D/L180R/Q94H/R68K/S129P/T187R/V100A/V91M/W191G); details: allele A*0101; for IC50 (nM), in vitro HLA binding affinity: fluorescence polarization competition
Protocol: A cell-free class I HLA binding assay that allows for in vitro quantification of peptide-HLA binding affinity in a competition format was used. In this assay, a fluorescently labeled, high binding, control peptide is loaded onto 384-well ½-area plates along with unlabeled experimental peptides. To remove endogenous peptides and render the HLA A and B molecules receptive to binding, HLA is heated at 53°C for 15 minutes and immediately added to the assay. The mixture is then allowed to stand for three days. Once the mixture has reached steady equilibrium (at 72 hours), displacement of the high binding control peptide is measured through fluorescence polarization. Binding of experimental peptides is expressed as the percent inhibition of the labeled control peptide (experimental fluorescence / control fluorescence, multiplied by 100). The percent inhibition values for each experimental peptide (across a range of molar concentrations) are used to calculate the concentration which inhibits 50% of the labeled control peptide’s specific binding. This value is referred to as the peptide’s IC50.

| Compound | IC50 (HLA-DRB1*0101) [nM] | IC50 (HLA-DRB1*0401) [µM] | IC50 (HLA-DRB1*1501) [µM] | IC50 (HLA-DRB1*1301) [µM] | IC50 (HLA-DRB1*0801) [µM] | IC50 (HLA-DRB1*1101) [µM] | IC50 (HLA-DRB1*0701) [µM] | IC50 (nM), in vitro HLA binding affinity (HLA-A*0101) | IC50 (nM) (HLA-A*0101; cell-free competition, fluorescence polarization at 72 hours, Non-binder = no dose-dependent inhibition) |
| --- | --- | --- | --- | --- | --- | --- | --- | --- | --- |
| CC[C@H](C)[C@H](NC(=O)[C@H](CC(=O)O)NC(=O)[C@H](CC(C)C)NC(=O)[C@H](CCCCN)NC(=O)[C@H](CC(N)=O)NC(=O)[C@H](CCC(=O)O)NC(C)=O)C(=O)N[C@@H](CC(C)C)C(=O)N[C@@H](CC(N)=O)C(=O)N[C@@H](CC(N)=O)C(=O)N[C@@H](CO)C(=O)N[C@@H](CCCCN)C(=O)N[C@@H](Cc1ccccc1)C(=O)N[C@@H](CC(N)=O)C(=O)N[C@@H](CCCCN)C(=O)N[C@@H](CCCNC(=N)N)C(=O)N[C@@H](Cc1c[nH]c2ccccc12)C(=O)N[C@@H](CCCCN)C(N)=O [EBA175_002] (Ac-ENKLDILNNSKFNKRWK-NH2) | 11900 | > 100 | 13.9 | 14.2 |  |  |  |  |  |
| CC[C@H](C)[C@H](NC(=O)[C@H](Cc1ccccc1)NC(=O)[C@H](Cc1c[nH]cn1)NC(=O)[C@H](CC(=O)O)NC(C)=O)C(=O)N[C@@H](CCC(=O)O)C(=O)N[C@@H](C)C(=O)N[C@@H](CO)C(=O)N[C@@H](CCCCN)C(=O)N[C@@H](CCCCN)C(=O)N[C@@H](CCC(=O)O)C(=O)N[C@@H](CO)C(=O)N[C@@H](CCC(N)=O)C(=O)N[C@@H](CC(C)C)C(=O)N[C@@H](CC(C)C)C(N)=O [EBA175_006] (Ac-DHFIEASKKESQLL-NH2) | 6630 | > 100 |  | 74.6 | 1.76 | 2.87 |  |  |  |
| CC[C@H](C)[C@H](NC(=O)[C@H](CCCCN)NC(=O)CNC(=O)[C@@H](NC(=O)[C@H](CC(C)C)NC(=O)[C@H](CCCCN)NC(=O)[C@H](CCCNC(=N)N)NC(=O)[C@H](CC(N)=O)NC(=O)[C@H](CO)NC(=O)[C@H](CC(C)C)NC(=O)[C@H](CC(=O)O)NC(=O)[C@H](CC(N)=O)NC(=O)[C@H](Cc1c[nH]c2ccccc12)NC(=O)[C@H](Cc1ccc(O)cc1)NC(=O)[C@H](CC(=O)O)NC(=O)[C@@H](NC(=O)CNC(C)=O)[C@@H](C)O)C(C)C)C(=O)N[C@@H](CC(N)=O)C(=O)N[C@H](C(=O)N[C@@H](CC(N)=O)C(N)=O)[C@@H](C)O [EBA175_011] (Ac-GTDYWNDLSNRKLVGKINTN-NH2) | 462 | 52.7 | 54.2 | > 100 | > 100 | 28.6 |  |  |  |
| CSCC[C@H](NC(=O)[C@@H](NC(=O)[C@H](Cc1c[nH]cn1)NC(=O)[C@H](Cc1ccccc1)NC(=O)CNC(=O)[C@H](Cc1c[nH]cn1)NC(=O)[C@H](CCCCN)NC(C)=O)[C@@H](C)O)C(=O)N[C@@H](CC(N)=O)C(=O)N[C@@H](CC(N)=O)C(=O)N[C@@H](CC(C)C)C(=O)N[C@@H](Cc1c[nH]cn1)C(=O)NCC(=O)N[C@@H](CC(=O)O)C(=O)NCC(=O)N[C@H](C(=O)N[C@@H](CO)C(=O)N[C@@H](CCC(=O)O)C(N)=O)C(C)C [EBA175_016] (Ac-KHGFHTMNNLHGDGVSE-NH2) | 160 | 0.458 | 79 | > 100 |  | 8.62 |  |  |  |
| CC[C@H](C)[C@H](NC(=O)[C@H](Cc1ccc(O)cc1)NC(=O)[C@@H](NC(=O)[C@H](CO)NC(=O)[C@H](Cc1c[nH]cn1)NC(C)=O)[C@@H](C)O)C(=O)N[C@@H](CCCCN)C(=O)N[C@@H](CO)C(=O)N[C@@H](Cc1ccc(O)cc1)C(=O)N[C@@H](CC(C)C)C(=O)N[C@@H](CC(N)=O)C(=O)N[C@H](C(=O)N[C@@H](CC(N)=O)C(=O)N[C@H](C(=O)N[C@@H](CC(N)=O)C(=O)N[C@@H](CC(=O)O)C(=O)NCC(=O)N[C@@H](CC(C)C)C(=O)N[C@@H](CCCCN)C(=O)N[C@@H](Cc1ccc(O)cc1)C(N)=O)C(C)C)[C@@H](C)O [RH5_003] (Ac-HSTYIKSYLNTNVNDGLKY-NH2) | 282 | 7.45 | 0.004 | 20.1 |  | 96.5 | 58.5 |  |  |
| CC[C@H](C)[C@H](NC(=O)[C@H](CC(=O)O)NC(=O)[C@@H]1CCCN1C(=O)[C@H](CC(C)C)NC(=O)[C@@H](NC(=O)[C@H](CO)NC(=O)[C@H](CO)NC(=O)[C@H](CC(N)=O)NC(=O)[C@H](Cc1ccc(O)cc1)NC(=O)[C@H](CC(C)C)NC(=O)[C@H](CO)NC(=O)[C@@H]1CCCN1C(=O)[C@@H](NC(=O)[C@H](CC(N)=O)NC(=O)[C@H](CO)NC(=O)[C@H](Cc1c[nH]cn1)NC(=O)[C@H](CC(C)C)NC(=O)[C@H](Cc1c[nH]cn1)NC(=O)[C@H](CO)NC(=O)[C@H](CC(N)=O)NC(=O)[C@H](CCCCN)NC(C)=O)[C@@H](C)CC)[C@@H](C)CC)C(=O)N[C@@H](CC(N)=O)C(=O)N[C@@H](CCCCN)C(=O)N[C@@H](CO)C(N)=O [RIPR_008] (Ac-KNSHLHSNIPSLYNSSILPDINKS-NH2) | 400 | 48.5 | 0.7 |  | 9.43 | 92.2 | 65.7 |  |  |
| CC[C@H](C)[C@H](NC(=O)[C@H](CC(C)C)NC(=O)[C@H](Cc1c[nH]cn1)NC(=O)[C@H](Cc1ccccc1)NC(=O)[C@H](CCCCN)NC(=O)[C@H](CO)NC(=O)[C@H](CCCCN)NC(C)=O)C(=O)N[C@@H](CO)C(=O)N[C@@H](CCCNC(=N)N)C(=O)N[C@@H](CC(N)=O)C(=O)N[C@@H](CO)C(=O)N[C@@H](CCCNC(=N)N)C(=O)N[C@H](C(=O)N[C@@H](CC(N)=O)C(=O)N[C@@H](CCC(N)=O)C(=O)N[C@@H](Cc1ccc(O)cc1)C(N)=O)[C@@H](C)O [RIPR_009] (Ac-KSKFHLISRNSRTNQY-NH2) | 441 | 59.1 | 15.8 | 0.064 | 63.4 | 0.075 |  |  |  |
| CC(=O)N[C@@H](CCC(=O)O)C(=O)N[C@@H](CCC(=O)O)C(=O)NCC(=O)N[C@@H](Cc1ccc(O)cc1)C(=O)N[C@@H](CCCCN)C(=O)N[C@@H](CC(N)=O)C(=O)N[C@H](C(=O)N[C@@H](CCCCN)C(=O)NCC(=O)N[C@@H](CCCCN)C(=O)N[C@@H](CS)C(=O)N[C@H](C(=O)N1CCC[C@H]1C(=O)N[C@@H](CC(=O)O)C(=O)N[C@@H](CC(N)=O)C(=O)N[C@@H](CCCCN)C(N)=O)C(C)C)C(C)C [RIPR_015] (Ac-EEGYKNVKGKCVPDNK-NH2) | 1810 | > 100 | > 100 | > 100 |  | 32 | 9.28 |  |  |
| DSCVPNTNEY [RIPR_0976] |  |  |  |  |  |  |  | Non-binder |  |
| LSDTLQLHED [EBA175_0881] |  |  |  |  |  |  |  |  | Non-binder |
| NLFEQLSCY [RH5_338] |  |  |  |  |  |  |  | Non-Binder |  |
| STDPHTNSNN [RIPR_0545] |  |  |  |  |  |  |  | Non-binder |  |
